For one compound, inhibition and fold change (FC) results are on record in ChEMBL document CHEMBL4261619, “Sentulic acid isolated from Sandoricum koetjape Merr attenuates lipopolysaccharide and interferon gamma co-stimulated nitric oxide production in murine macrophage RAW264 cells” (Bioorg Med Chem Lett, 2018).

What all share (type): cell-based
Test [1] has as its target T1, Toll-like receptor 4 (Mus musculus) (UniProt Q9QUK6).
T1 sequence (whole entry): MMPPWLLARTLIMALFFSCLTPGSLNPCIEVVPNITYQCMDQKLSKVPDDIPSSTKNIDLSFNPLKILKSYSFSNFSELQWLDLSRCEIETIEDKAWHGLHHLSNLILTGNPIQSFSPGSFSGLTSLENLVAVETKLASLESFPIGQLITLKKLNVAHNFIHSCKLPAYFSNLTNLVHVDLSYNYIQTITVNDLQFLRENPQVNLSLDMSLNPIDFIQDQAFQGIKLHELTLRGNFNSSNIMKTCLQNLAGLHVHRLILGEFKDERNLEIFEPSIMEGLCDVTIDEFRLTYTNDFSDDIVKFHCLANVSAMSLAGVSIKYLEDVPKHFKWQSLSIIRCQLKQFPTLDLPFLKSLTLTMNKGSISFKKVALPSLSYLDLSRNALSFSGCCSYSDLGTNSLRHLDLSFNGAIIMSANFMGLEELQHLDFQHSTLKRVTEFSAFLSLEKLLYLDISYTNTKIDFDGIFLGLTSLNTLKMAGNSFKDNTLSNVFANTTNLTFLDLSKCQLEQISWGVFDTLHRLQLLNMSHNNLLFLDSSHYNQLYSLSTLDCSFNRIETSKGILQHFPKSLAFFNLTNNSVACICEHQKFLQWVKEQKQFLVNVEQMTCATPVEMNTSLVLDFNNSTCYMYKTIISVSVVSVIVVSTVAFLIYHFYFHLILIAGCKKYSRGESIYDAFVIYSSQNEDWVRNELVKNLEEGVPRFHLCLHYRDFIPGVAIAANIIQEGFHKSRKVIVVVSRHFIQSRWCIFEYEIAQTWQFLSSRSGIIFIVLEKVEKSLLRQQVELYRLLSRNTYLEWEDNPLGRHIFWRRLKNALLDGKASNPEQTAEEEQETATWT
As to the kind of experiment: Inhibition of LPS binding to TLR4 in IFNgamma-stimulated mouse RAW264.7 cells assessed as suppression of NFkappaB nuclear translocation.

In test [2] the target is T1, Toll-like receptor 4 (Mus musculus). Description: Inhibition of LPS binding to TLR4 in IFNgamma-stimulated mouse RAW264.7 cells assessed as suppression of iNOS mRNA expression at 100 uM by qRT-PCR analysis.
The target is the same in test [3]. Description: Inhibition of LPS binding to TLR4 in IFNgamma-stimulated mouse RAW264.7 cells assessed as effect on ratio of phosphorylated TAK1 to total TAK1 at 100 uM measured after 30 mins by Western blot analysis relative to beta-actin (reference value: 3.7). Background: Immunoblotting shows a protein as a band on a membrane.
For test [4] the target is unchanged. Description: Inhibition of LPS binding to TLR4 in IFNgamma-stimulated mouse RAW264.7 cells assessed as effect on ratio of phosphorylated JNK to total JNK at 100 uM measured after 15 mins by Western blot analysis relative to beta-actin (reference value: 2).
Test [5] concerns RAW264.7. Description: Inhibition of IFNgamma binding to IFNGR in LPS-stimulated mouse RAW264.7 cells assessed as effect on ratio of phosphorylated Stat1 to total Stat1 at 100 uM measured after 30 mins by Western blot analysis relative to beta-actin (reference value: 1.9).
Test [6] deals with T1, Toll-like receptor 4 (Mus musculus). Description: Displacement of Alexa fluor 488-conjugated LPS from TLR4 in mouse RAW264.7 cells at 100 uM pretreated for 2 hrs followed by Alexa fluor 488-conjugated LPS addition and measured after 30 mins by Hoechst 33342 staining based assay relative to control.
Test [7] has as its system RAW264.7. As to the kind of experiment: Inhibition of IFNgamma binding to IFNGR in LPS-stimulated mouse RAW264.7 cells assessed as effect on ratio of phosphorylated Stat1 to total Stat1 at 100 uM measured after 60 mins by Western blot analysis relative to beta-actin (reference value: 4.1).
For test [8], the target named is T1, Toll-like receptor 4 (Mus musculus). Description: Inhibition of LPS binding to TLR4 in IFNgamma-stimulated mouse RAW264.7 cells assessed as effect on ratio of phosphorylated TAK1 to total TAK1 at 100 uM measured after 60 mins by Western blot analysis relative to beta-actin (reference value: 3.1).
Test [9] has the same target. As to the kind of experiment: Inhibition of LPS binding to TLR4 in IFNgamma-stimulated mouse RAW264.7 cells assessed as effect on ratio of phosphorylated ERK to total ERK at 100 uM measured after 60 mins by Western blot analysis relative to beta-actin (reference value: 3).
Test [10] shares this target. Description: Inhibition of LPS binding to TLR4 in IFNgamma-stimulated mouse RAW264.7 cells assessed as effect on ratio of phosphorylated JNK to total JNK at 100 uM measured after 30 mins by Western blot analysis relative to beta-actin (reference value: 2.3).
For test [11] the target is unchanged. Description: Inhibition of LPS binding to TLR4 in IFNgamma-stimulated mouse RAW264.7 cells assessed as suppression of TNFalpha mRNA expression at 100 uM by qRT-PCR analysis.
The target is the same in test [12]. As to the kind of experiment: Inhibition of LPS binding to TLR4 in IFNgamma-stimulated mouse RAW264.7 cells assessed as effect on ratio of phosphorylated ERK to total ERK at 100 uM measured after 30 mins by Western blot analysis relative to beta-actin (reference value: 0.8).
Test [13] shares this target. As to the kind of experiment: Inhibition of LPS binding to TLR4 in IFNgamma-stimulated mouse RAW264.7 cells assessed as effect on ratio of phosphorylated p38 to total p38 at 100 uM measured after 120 mins by Western blot analysis relative to beta-actin (reference value: 2.2).
The subject of test [14] is RAW264.7. Description: Inhibition of IFNgamma binding to IFNGR in LPS-stimulated mouse RAW264.7 cells assessed as effect on ratio of phosphorylated Stat1 to total Stat1 at 100 uM measured after 15 mins by Western blot analysis relative to beta-actin (reference value: 1.3).
Test [15] concerns the target T1, Toll-like receptor 4 (Mus musculus). Description: Inhibition of LPS binding to TLR4 in IFNgamma-stimulated mouse RAW264.7 cells assessed as suppression of IL6 mRNA expression at 100 uM by qRT-PCR analysis.
For test [16] the target is unchanged. Description: Inhibition of LPS binding to TLR4 in IFNgamma-stimulated mouse RAW264.7 cells assessed as effect on ratio of phosphorylated NFkappaB to total NFkappaB at 100 uM measured after 15 mins by Western blot analysis relative to beta-actin (reference value: 4.7).
Test [17] shares this target. As to the kind of experiment: Inhibition of LPS binding to TLR4 in IFNgamma-stimulated mouse RAW264.7 cells assessed as reduction in COX2 expression at 100 uM by Western blot analysis.
The target is the same in test [18]. Description: Inhibition of LPS binding to TLR4 in IFNgamma-stimulated mouse RAW264.7 cells assessed as effect on ratio of phosphorylated NFkappaB to total NFkappaB at 100 uM measured after 30 mins by Western blot analysis relative to beta-actin (reference value: 2.7).
For test [19] the target is unchanged. Description: Inhibition of LPS binding to TLR4 in IFNgamma-stimulated mouse RAW264.7 cells assessed as effect on ratio of phosphorylated TAK1 to total TAK1 at 100 uM measured after 120 mins by Western blot analysis relative to beta-actin (reference value: 3).

The structures appear in SMILES notation. The source made the active and inactive calls. The calls are words filed in the database; no cut-off is given here.

A word on the inhibition: it is the percentage by which the read-out fell short of the control.

On to `C=C(C)[C@@H]1CC[C@]2(C)[C@H](CC=C3[C@@H]4CC(C)(C)CC[C@]4(C)CC[C@]32C(=O)O)[C@@]1(C)CCC(=O)O`, for which the inhibition entry in test [1], in test [2], in test [11] and in test [15] was “Active” in each case. Moreover, the fold change (FC) in test [3] is 0.6; in test [4] it was 1; in the test with RAW264.7 [5], 1.2; with RAW264.7 [7], 1.8; in test [8], 1; in [9], 2.2. Further, the fold change (FC) in test [10] stood at 1.5; in test [12], 0.7; in [13], 1.3; in the test on RAW264.7 [14] it was 1.2; in [16], 2.9; in test [18], 1.6. For the same compound, the fold change (FC) in test [19] is 0.9. Besides, the inhibition in [6] was 43%. For the same compound, in test [17], the inhibition entry was “inactive”.
